Legend:
[1] = tested on: proline tolerant tripeptidyl peptidase (TRI083); experiment: Hydrolysis of 33-mer gliadin peptide, LC-MS label-free quantification; assay type: biochemical; details: for Relative MS peak intensities: 24° C., pH 4.5
Procedure: The 33-mer of gliadin (alpha-2-gliadin) (aa56-88) H-[…]-OH (Zedira GmbH; D-64293 Darmstadt, Germany) C190H273N43O47 (MW=3911.46) (1 mg/ml; 0.26 mM) was incubated at 24° C. in the presence of proline tolerant tripeptidyl peptidase (0.01 mg/ml TRI083) in a total volume of 1000 ul buffer (pH=4.5) (the ratio substrate/enzyme 100:1, w/w). Aliquots (100 ul) of enzyme reaction were stopped with 20 ul 5% trifluoroacetic acid (TFA) after 0, 1, 3, 5, 10, 15 and 30 minutes, respectively. The samples were then transferred to new vials and analyzed on the LTQ Orbitrap mass spectrometer.
The LC-MS/MS data was manually annotated using GPMAW to calculate theoretical values of fragmentation.

[2] = tested on: H-Ala-Ala-Phe-pNA; experiment: Low pH stability of tripeptidyl peptidases (pH 2.5, 40° C., 60 min), activity on H-Ala-Ala-Phe-pNA; assay type: biochemical; details: for OD410nm (Final): after pH 2.5, 40° C., 60 min; for OD410nm (Initial): without incubation at 40° C. for 60 min
Procedure: As requirements for utilization of the enzymes in feed for monogastric animals, the enzymes should be active at lower pH. For this reason the number of tripeptidyl peptidases has been tested with the reaction on synthetic substrate AAF (H-Ala-Ala-Phe-pNA. BACHEM, L-1095), at pH 2.5.
The tripeptide substrate AAF was prepared at 2.5 mg/ml in DMSO. Tripeptidyl peptidases were used as broth. The reaction mixture containing 2.5 μl enzyme and 90 μL glycine acetic acid-Tris buffer (each buffer components at 50 mM, pH 2.5) was prepared in 96 well incubation plates.
The incubation plate was mixed and incubated at 40° C. for 60 min. Then 50 μl 0.2M Mes-NaOH pH6.0 was added to each well, mixed at 600 rpm for 2 min. After that, 5 ul of the incubation mixture were taken to 96 well assay plate already filled with 85 μl 0.1M acetic acid buffer, pH4.0 and 5 μl 2.5 mg/ml AAF substrate solution.
The reaction mixture was stirred at 600 rpm for 2 min and read directly in a microplate reader (Molecular Devices, Denmark) at 410 nm at 30° C. every 30 second for 15 min.
To measure initial enzyme activity, similar procedure was performed except the step of enzyme incubation at 40° C. for 60 min.

Chain of proline tolerant tripeptidyl peptidase (TRI083) (as listed by the source): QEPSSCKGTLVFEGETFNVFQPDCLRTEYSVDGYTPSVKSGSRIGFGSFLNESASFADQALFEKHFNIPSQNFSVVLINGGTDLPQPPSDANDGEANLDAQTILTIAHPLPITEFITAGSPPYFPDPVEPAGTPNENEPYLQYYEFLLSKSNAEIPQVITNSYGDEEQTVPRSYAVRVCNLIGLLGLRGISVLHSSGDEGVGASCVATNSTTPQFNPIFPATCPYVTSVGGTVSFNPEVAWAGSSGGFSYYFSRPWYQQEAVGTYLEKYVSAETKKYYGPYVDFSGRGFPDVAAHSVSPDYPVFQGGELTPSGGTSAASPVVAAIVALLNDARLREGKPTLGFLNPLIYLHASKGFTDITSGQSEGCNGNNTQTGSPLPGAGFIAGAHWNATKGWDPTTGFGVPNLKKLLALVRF

How did the “Relative MS peak intensities” value ([1]; 0 min with TRI083 0.01 mg/ml) turn out when “H-LQLQPFPQPQLPYPQPQLPYPQPQLPYPQPQPF-OH [Alpha-2 gliadin, 33-mer of gliadin (alpha-2-gliadin) (aa56-88), substrate, reference compound]” was run?
The value was 100.

What about the “Relative MS peak intensities” value ([1]; 1 min with TRI083 0.01 mg/ml) of the same molecule?
The value was 10.

What about the “Relative MS peak intensities” value ([1]; 3 min with TRI083 0.01 mg/ml) of the same molecule?
The value was 0.

And the “Relative MS peak intensities” value ([1]; 5 min with TRI083 0.01 mg/ml)?
The value was 0.

And the “Relative MS peak intensities” value ([1]; 10 min with TRI083 0.01 mg/ml)?
The value was 0.

And the “Relative MS peak intensities” value ([1]; 15 min with TRI083 0.01 mg/ml)?
Its value is 0.

What about the “Relative MS peak intensities” value ([1]; 30 min with TRI083 0.01 mg/ml) of the same molecule?
Its value is 0.

What about the “detectability of the intact peptide over time” value ([1]; TRI083 0.01 mg/ml, substrate/enzyme 100:1) of the same molecule?
Its value is “not detectable after 3 min”.

What about the “cleavage by proline tolerant tripeptidyl peptidase” value ([1]; proline in P3,P2,P1,P1′,P2′ and P3′ positions) of the same molecule?
The value was “consecutively into tri-peptides irrespective of a high proline content”.

LPY was tested. Which “Relative MS peak intensities” value ([1]; 0 min with TRI083 0.01 mg/ml) did it give?
The value was 5.

And the “Relative MS peak intensities” value ([1]; 1 min with TRI083 0.01 mg/ml)?
The value was 21.

And the “Relative MS peak intensities” value ([1]; 3 min with TRI083 0.01 mg/ml)?
Its value is 46.

And the “Relative MS peak intensities” value ([1]; 5 min with TRI083 0.01 mg/ml)?
The value was 62.

What about the “Relative MS peak intensities” value ([1]; 10 min with TRI083 0.01 mg/ml) of the same molecule?
Its value is 90.

What about the “Relative MS peak intensities” value ([1]; 15 min with TRI083 0.01 mg/ml) of the same molecule?
Its value is 100.

What about the “Relative MS peak intensities” value ([1]; 30 min with TRI083 0.01 mg/ml) of the same molecule?
The value was 94.

With LQL as the molecule, how does the “Relative MS peak intensities” value ([1]; 0 min with TRI083 0.01 mg/ml) read?
Its value is 3.

And the “Relative MS peak intensities” value ([1]; 1 min with TRI083 0.01 mg/ml)?
The value was 91.

And the “Relative MS peak intensities” value ([1]; 3 min with TRI083 0.01 mg/ml)?
Its value is 88.

And the “Relative MS peak intensities” value ([1]; 5 min with TRI083 0.01 mg/ml)?
The value was 94.

And the “Relative MS peak intensities” value ([1]; 10 min with TRI083 0.01 mg/ml)?
Its value is 94.

What about the “Relative MS peak intensities” value ([1]; 15 min with TRI083 0.01 mg/ml) of the same molecule?
The value was 100.

And the “Relative MS peak intensities” value ([1]; 30 min with TRI083 0.01 mg/ml)?
Its value is 100.

For PQL, which “Relative MS peak intensities” value ([1]; 0 min with TRI083 0.01 mg/ml) is on record?
The value was 8.

What about the “Relative MS peak intensities” value ([1]; 1 min with TRI083 0.01 mg/ml) of the same molecule?
Its value is 21.

And the “Relative MS peak intensities” value ([1]; 3 min with TRI083 0.01 mg/ml)?
The value was 30.

What about the “Relative MS peak intensities” value ([1]; 5 min with TRI083 0.01 mg/ml) of the same molecule?
Its value is 32.

What about the “Relative MS peak intensities” value ([1]; 10 min with TRI083 0.01 mg/ml) of the same molecule?
Its value is 42.

And the “Relative MS peak intensities” value ([1]; 15 min with TRI083 0.01 mg/ml)?
Its value is 58.

And the “Relative MS peak intensities” value ([1]; 30 min with TRI083 0.01 mg/ml)?
Its value is 100.

How did the “Relative MS peak intensities” value ([1]; 0 min with TRI083 0.01 mg/ml) turn out when PYP was run?
Its value is 4.

What about the “Relative MS peak intensities” value ([1]; 1 min with TRI083 0.01 mg/ml) of the same molecule?
Its value is 7.

What about the “Relative MS peak intensities” value ([1]; 3 min with TRI083 0.01 mg/ml) of the same molecule?
The value was 12.

And the “Relative MS peak intensities” value ([1]; 5 min with TRI083 0.01 mg/ml)?
Its value is 15.

And the “Relative MS peak intensities” value ([1]; 10 min with TRI083 0.01 mg/ml)?
Its value is 28.

And the “Relative MS peak intensities” value ([1]; 15 min with TRI083 0.01 mg/ml)?
The value was 48.

And the “Relative MS peak intensities” value ([1]; 30 min with TRI083 0.01 mg/ml)?
The value was 101.

How did the “Relative MS peak intensities” value ([1]; 0 min with TRI083 0.01 mg/ml) turn out when QPF was run?
Its value is 0.

And the “Relative MS peak intensities” value ([1]; 1 min with TRI083 0.01 mg/ml)?
Its value is 4.

And the “Relative MS peak intensities” value ([1]; 3 min with TRI083 0.01 mg/ml)?
Its value is 55.

What about the “Relative MS peak intensities” value ([1]; 5 min with TRI083 0.01 mg/ml) of the same molecule?
The value was 7.

What about the “Relative MS peak intensities” value ([1]; 10 min with TRI083 0.01 mg/ml) of the same molecule?
The value was 129.

What about the “Relative MS peak intensities” value ([1]; 15 min with TRI083 0.01 mg/ml) of the same molecule?
Its value is 26.

And the “Relative MS peak intensities” value ([1]; 30 min with TRI083 0.01 mg/ml)?
Its value is 100.

With “YPQPQLPYPQPQLPYPQPQPF [intermediate product of alpha-2-gliadin hydrolysis]” as the molecule, how does the “Relative MS peak intensities” value ([1]; 0 min with TRI083 0.01 mg/ml) read?
Its value is 79.

And the “Relative MS peak intensities” value ([1]; 1 min with TRI083 0.01 mg/ml)?
The value was 100.

What about the “Relative MS peak intensities” value ([1]; 3 min with TRI083 0.01 mg/ml) of the same molecule?
Its value is 52.

And the “Relative MS peak intensities” value ([1]; 5 min with TRI083 0.01 mg/ml)?
The value was 23.

What about the “Relative MS peak intensities” value ([1]; 10 min with TRI083 0.01 mg/ml) of the same molecule?
Its value is 23.

And the “Relative MS peak intensities” value ([1]; 15 min with TRI083 0.01 mg/ml)?
Its value is 23.

And the “Relative MS peak intensities” value ([1]; 30 min with TRI083 0.01 mg/ml)?
The value was 20.

B1: TRI053.1: tripeptidyl peptidase, SEQ ID No. 10/SEQ ID No. 37, used as broth (protein, listed as Aspergillus kawachii)
chain 1: VVHEKLAAVPSGWHHLEDAGSDHQISLSIALARKNLDQLESKLKDLSTPGESQYGQWLDQEEVDTLFPVASDKAVISWLRSANITHIARQGSLVNFATTVDKVNKLLNTTFAYYQRGSSQRLRTTEYSIPDDLVDSIDLISPTTFFGKEKTSAGLTQRSQKVDNHVAKRSNSSSCADTITLSCLKEMYNFGNYTPSASSGSKLGFASFLNESASYSDLAKFERLFNLPSQNFSVELINGGVNDQNQSTASLTEADLDVELLVGVGHPLPVTEFITSGEPPFIPDPDEPSAADNENEPYLQYYEYLLSKPNSALPQVISNSYGDDEQTVPEYYAKRVCNLIGLVGLRGISVLESSGDEGIGSGCRTTDGTNSTQFNPIFPATCPYVTAVGGTMSYAPEIAWEASSGGFSNYFERAWFQKEAVQNYLANHITNETKQYYSQFANFSGRGFPDVSAHSFEPSYEVIFYGARYGSGGTSAACPLFSALVGMLNDARLRAGKSTLGFLNPLLYSKGYKALTDVTAGQSIGCNGIDPQSDEAVAGAGIIPWAHWNATVGWDPVTGLGLPDFEKLRQLVLSL
chain 2: CADTITLSCLKEMYNFGNYTPSASSGSKLGFASFLNESASYSDLAKFERLFNLPSQNFSVELINGGVNDQNQSTASLTEADLDVELLVGVGHPLPVTEFITSGEPPFIPDPDEPSAADNENEPYLQYYEYLLSKPNSALPQVISNSYGDDEQTVPEYYAKRVCNLIGLVGLRGISVLESSGDEGIGSGCRTTDGTNSTQFNPIFPATCPYVTAVGGTMSYAPEIAWEASSGGFSNYFERAWFQKEAVQNYLANHITNETKQYYSQFANFSGRGFPDVSAHSFEPSYEVIFYGARYGSGGTSAACPLFSALVGMLNDARLRAGKSTLGFLNPLLYSKGYKALTDVTAGQSIGCNGIDPQSDEAVAGAGIIPWAHWNATVGWDPVTGLGLPDFEKLRQLVLS
modifications: used as fermentation broth
Which “OD410nm (Final)” value [2] does the source give for B1 here?
The value was 0.356.

And the “OD410nm (Initial)” value [2]?
Its value is 0.345.

B2: TRI050: tripeptidyl peptidase, SEQ ID No. 7/SEQ ID No. 34, used as broth (protein, listed as Fusarium graminearum)
chain 1: KSYSHHAEAPKGWKVDDTARVASTGKQQVFSIALTMQNVDQLESKLLDLSSPDSKNYGQWMSQKDVTTAFYPSKEAVSSVTKWLKSKGVKHYNVNGGFIDFALDVKGANALLDSDYQYYTKEGQTKLRTLSYSIPDDVAEHVQFVDPSTNFGGTLAFAPVTHPSRTLTERKNKPTKSTVDASCQTSITPSCLKQMYNIGDYTPKVESGSTIGFSSFLGESAIYSDVFLFEEKFGIPTQNFTTVLINNGTDDQNTAHKNFGEADLDAENIVGIAHPLPFTQYITGGSPPFLPNIDQPTAADNQNEPYVPFFRYLLSQKEVPAVVSTSYGDEEDSVPREYATMTCNLIGLLGLRGISVIFSSGDIGVGAGCLGPDHKTVEFNAIFPATCPYLTSVGGTVDVTPEIAWEGSSGGFSKYFPRPSYQDKAVKTYMKTVSKQTKKYYGPYTNWEGRGFPDVAGHSVSPNYEVIYAGKQSASGGTSAAAPVWAAIVGLLNDARFRAGKPSLGWLNPLVYKYGPKVLTDITGGYAIGCDGNNTQSGKPEPAGSGIVPGARWNATAGWDPVTGYGTPDFGKLKDLVLSF
chain 2: CQTSITPSCLKQMYNIGDYTPKVESGSTIGFSSFLGESAIYSDVFLFEEKFGIPTQNFTTVLINNGTDDQNTAHKNFGEADLDAENIVGIAHPLPFTQYITGGSPPFLPNIDQPTAADNQNEPYVPFFRYLLSQKEVPAVVSTSYGDEEDSVPREYATMTCNLIGLLGLRGISVIFSSGDIGVGAGCLGPDHKTVEFNAIFPATCPYLTSVGGTVDVTPEIAWEGSSGGFSKYFPRPSYQDKAVKTYMKTVSKQTKKYYGPYTNWEGRGFPDVAGHSVSPNYEVIYAGKQSASGGTSAAAPVWAAIVGLLNDARFRAGKPSLGWLNPLVYKYGPKVLTDITGGYAIGCDGNNTQSGKPEPAGSGIVPGARWNATAGWDPVTGYGTPDFGKLKDLVLS
modifications: used as fermentation broth
With B2 as the molecule, how does the “OD410nm (Final)” value [2] read?
Its value is 0.814.

And the “OD410nm (Final)” value ([2]; listed as TRI050.3)?
The value was 0.501.

And the “OD410nm (Initial)” value [2]?
Its value is 0.895.

What about the “OD410nm (Initial)” value ([2]; listed as TRI050.3) of the same molecule?
Its value is 0.603.

From patent publication US20220174981A1, “PROLINE TOLERANT TRIPEPTIDYL PEPTIDASES AND USES THEREOF” (DuPont Nutrition Biosciences APS, priority 2014, published 2022)
